Test results published in US20240059691A1 (KALVISTA PHARMACEUTICALS LIMITED, priority 2020, published 2024).

Key:
Human Factor XIIa = Human Factor XIIa (Homo sapiens (Human), UniProt P00748); assay: Determination of FXIIa inhibition (fluorogenic substrate H-DPro-Phe-Arg-AFC, IC50 assay); format: biochemical; conditions: substrate H-DPro-Phe-Arg-AFC at Km, 25° C.; class scale A-G
Method in brief: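 Human FXIIa incubated at 25° C with fluorogenic substrate H-DPro-Phe-Arg-AFC at its Km concentration and varying compound concentrations. Fluorescence release monitored over 5 min at 25° C; linear rate expressed as % of uninhibited activity to derive IC50.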

Plasma Kallikrein = Plasma Kallikrein (Homo sapiens (Human), UniProt P03952); assay: Determination of related protease inhibition: Plasma Kallikrein (fluorogenic substrate at Km); format: biochemical; conditions: 25° C., read-out: IC50 (human PKal)
Chain of Plasma Kallikrein (P03952 391-638): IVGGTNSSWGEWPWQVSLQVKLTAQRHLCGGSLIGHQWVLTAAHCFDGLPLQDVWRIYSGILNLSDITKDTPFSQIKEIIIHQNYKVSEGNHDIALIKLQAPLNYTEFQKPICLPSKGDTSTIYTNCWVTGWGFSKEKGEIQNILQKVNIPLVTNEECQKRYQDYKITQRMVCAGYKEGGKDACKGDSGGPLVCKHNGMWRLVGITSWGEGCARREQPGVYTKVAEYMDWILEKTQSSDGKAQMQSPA
Chain of Plasma Kallikrein (P03952 20-390 partner): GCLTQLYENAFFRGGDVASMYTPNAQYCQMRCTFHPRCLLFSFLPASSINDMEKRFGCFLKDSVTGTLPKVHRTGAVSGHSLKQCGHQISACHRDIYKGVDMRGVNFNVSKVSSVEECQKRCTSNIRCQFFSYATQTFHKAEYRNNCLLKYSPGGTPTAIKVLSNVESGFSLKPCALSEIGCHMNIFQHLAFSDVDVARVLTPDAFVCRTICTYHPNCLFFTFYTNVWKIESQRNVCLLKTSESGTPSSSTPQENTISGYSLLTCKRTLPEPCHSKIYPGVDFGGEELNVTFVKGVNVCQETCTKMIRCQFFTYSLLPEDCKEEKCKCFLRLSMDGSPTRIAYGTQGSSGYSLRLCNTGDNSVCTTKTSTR
Method in brief: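 The enzyme from human source is assayed in the presence of various test compound concentrations, with substrate held at its Km. Accumulating fluorescence is tracked for 5 min at 25 °C, and the concentration halving uninhibited activity is reported as IC50.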

Chain of Human Factor XIIa (P00748 373-615): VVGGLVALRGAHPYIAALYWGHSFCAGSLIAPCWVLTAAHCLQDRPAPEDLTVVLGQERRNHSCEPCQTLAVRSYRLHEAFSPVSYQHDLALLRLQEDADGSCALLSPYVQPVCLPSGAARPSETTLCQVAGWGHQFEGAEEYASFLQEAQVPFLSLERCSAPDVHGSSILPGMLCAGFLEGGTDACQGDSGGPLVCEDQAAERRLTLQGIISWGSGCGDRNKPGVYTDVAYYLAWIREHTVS

Row | IC50 (Human Factor XIIa) | IC50 (Plasma Kallikrein) | SMILES
1 | 3 to 10 µM | > 40 µM | CC(C)(O)C1CN(c2ccc(CNc3cccc4c(N)nccc34)cn2)Cc2nccn21 (centres unmarked) [Example 1135, 2-(7-(5-(((1-aminoisoquinolin-5-yl)amino)methyl)pyridin-2-yl)-5,6,7,8-tetrahydroimidazo[1,2-a]pyrazin-5-yl)propan-2-ol]
2 | 1 to 3 µM | > 40 µM | Nc1nccc2c(NCc3ccc(N4Cc5nccn5CC4CO)nc3)cccc12 (centres unmarked) [Example 1137, (7-(5-(((1-aminoisoquinolin-5-yl)amino)methyl)pyridin-2-yl)-5,6,7,8-tetrahydroimidazo[1,2-a]pyrazin-6-yl)methanol]
3 | 3 to 10 µM | > 40 µM | Nc1nccc2c(NCc3ccc(N4CCn5ccnc5C4CO)nc3)cccc12 (centres unmarked) [Example 1140, (7-(5-(((1-aminoisoquinolin-5-yl)amino)methyl)pyridin-2-yl)-5,6,7,8-tetrahydroimidazo[1,2-a]pyrazin-8-yl)methanol]
4 | 0.3 to 1 µM | > 40 µM | CC1c2nccn2CCN1c1ccc(CNc2cccc3c(N)nccc23)cn1 (centres unmarked) [Example 1150, N5-((6-(8-methyl-5,6-dihydroimidazo[1,2-a]pyrazin-7(8H)-yl)pyridin-3-yl)methyl)isoquinoline-1,5-diamine]
5 | 10 to 40 µM | > 40 µM | Nc1nccc2c(NCc3ccc(N4CCn5nccc5C4)nc3)cccc12 [Example 1156, N5-((6-(6,7-dihydropyrazolo[1,5-a]pyrazin-5(4H)-yl)pyridin-3-yl)methyl)isoquinoline-1,5-diamine]
6 | 3 to 10 µM | > 40 µM | CC(C)(O)c1cn2c(n1)CN(c1ccc(CNc3cccc4c(N)nccc34)cn1)CC2 [Example 1163, 2-(7-(5-(((1-aminoisoquinolin-5-yl)amino)methyl)pyridin-2-yl)-5,6,7,8-tetrahydroimidazo[1,2-a]pyrazin-2-yl)propan-2-ol]
7 | 3 to 10 µM | > 40 µM | CC(C)(O)c1cnc2n1CCN(c1ccc(CNc3cccc4c(N)nccc34)cn1)C2 [Example 1167, 2-(7-(5-(((1-aminoisoquinolin-5-yl)amino)methyl)pyridin-2-yl)-5,6,7,8-tetrahydroimidazo[1,2-a]pyrazin-3-yl)propan-2-ol]
8 | 3 to 10 µM | > 40 µM | CC(C)(O)[C@H]1CCN(c2ccc(CNc3ccc4c(N)ncc(Cl)c4c3)cn2)C1 [Example 1176, 2-[(3S)-1-(5-{[(1-amino-4-chloroisoquinolin-6-yl)amino]methyl}pyridin-2-yl)pyrrolidin-3-yl]propan-2-ol]
9 | 10 to 40 µM | > 40 µM | Nc1nccc2c(NCc3ccc(NCCc4nccn4C(F)F)nc3)cccc12 [Example 1181, N5-((6-((2-(1-(difluoromethyl)-1H-imidazol-2-yl)ethyl)amino)pyridin-3-yl)methyl)isoquinoline-1,5-diamine]
10 | 10 to 40 µM | > 40 µM | Nc1ncc(Cl)c2cc(NCc3ccc(NCCc4nccn4C(F)F)nc3)ccc12 [Example 1182, 4-chloro-N6-((6-((2-(1-(difluoromethyl)-1H-imidazol-2-yl)ethyl)amino)pyridin-3-yl)methyl)isoquinoline-1,6-diamine]
11 | 10 to 40 µM | > 100 µM | CN1CCC(CNc2ccc(CNc3ccc4cccnc4c3)cn2)CC1 [Example 1184, N-((6-(((1-methylpiperidin-4-yl)methyl)amino)pyridin-3-yl)methyl)quinolin-7-amine]
12 | 10 to 40 µM | > 40 µM | Nc1ncc(Cl)c2cc(NCc3ccc(NCc4nccn4C(F)F)nc3)ccc12 [Example 1185]
13 | 40 to 100 µM | > 100 µM | CN1CCC(CNc2ccc(CNc3ccc4cncc(Cl)c4c3)cn2)CC1 [Example 1188, 4-chloro-N-((6-(((1-methylpiperidin-4-yl)methyl)amino)pyridin-3-yl)methyl)isoquinolin-6-amine]
14 | 40 to 100 µM | > 40 µM | CN1CCC(CNc2ccc(CNc3cnc4nccnc4c3)cn2)CC1 [Example 1189, N-((6-(((1-methylpiperidin-4-yl)methyl)amino)pyridin-3-yl)methyl)pyrido[2,3-b]pyrazin-7-amine]
15 | 0.1 to 0.3 µM | 3 to 10 µM | CN1CCC(CNc2ccc(CNc3ccc4c(N)ncc(Cl)c4c3)cn2)CC1 [Example 1193, 4-chloro-N6-((6-(((1-methylpiperidin-4-yl)methyl)amino)pyridin-3-yl)methyl)isoquinoline-1,6-diamine]
16 | 3 to 10 µM | > 40 µM | CN1CCC(CNc2ccc(CNc3cccc4c(N)ncc(F)c34)cn2)CC1 [Example 1194, 4-fluoro-N5-((6-(((1-methylpiperidin-4-yl)methyl)amino)pyridin-3-yl)methyl)isoquinoline-1,5-diamine]
17 | 0.1 to 0.3 µM | 3 to 10 µM | CN1CCC(CNc2ccc(CNc3ccc4c(N)ncc(F)c4c3)cn2)CC1 [Example 1195, 4-fluoro-N6-((6-(((1-methylpiperidin-4-yl)methyl)amino)pyridin-3-yl)methyl)isoquinoline-1,6-diamine]
18 | 1 to 3 µM | 3 to 10 µM | CN1CCC(CNc2ccc(CNc3cc4ccnc(N)c4cn3)cn2)CC1 [Example 1196, N6-((6-(((1-methylpiperidin-4-yl)methyl)amino)pyridin-3-yl)methyl)-2,7-naphthyridine-1,6-diamine]
19 | 40 to 100 µM | > 40 µM | CN1CCC(CNc2ccc(CNc3ccc4cncc(N5CCCCC5)c4c3)cn2)CC1 [Example 1198, N-((6-(((1-methylpiperidin-4-yl)methyl)amino)pyridin-3-yl)methyl)-4-(piperidin-1-yl)isoquinolin-6-amine]
20 | 40 to 100 µM | > 40 µM | CN1CCC(CNc2ccc(CNc3ccc4c[nH]c(=O)cc4c3)cn2)CC1 [Example 1201, 6-(((6-(((1-methylpiperidin-4-yl)methyl)amino)pyridin-3-yl)methyl)amino)isoquinolin-3(2H)-one]
21 | 10 to 40 µM | > 100 µM | Cc1cnc2[nH]ccc2c1NCc1ccc(NCC2CCN(C)CC2)nc1 [Example 1205, 5-methyl-N-((6-(((1-methylpiperidin-4-yl)methyl)amino)pyridin-3-yl)methyl)-1H-pyrrolo[2,3-b]pyridin-4-amine]
22 | 40 to 100 µM | > 100 µM | CN1CCC(CNc2ccc(CNc3c(F)cnc4[nH]ccc34)cn2)CC1 [Example 1206, 5-fluoro-N-((6-(((1-methylpiperidin-4-yl)methyl)amino)pyridin-3-yl)methyl)-1H-pyrrolo[2,3-b]pyridin-4-amine]
23 | 40 to 100 µM | > 100 µM | CN1CCC(CNc2ccc(CNc3cc(F)c4cnccc4c3)cn2)CC1 [Example 1207, 8-fluoro-N-((6-(((1-methylpiperidin-4-yl)methyl)amino)pyridin-3-yl)methyl)isoquinolin-6-amine]
24 | 3 to 10 µM | > 40 µM | CN1CCC(CNc2ccc(CNc3cc(Cl)c4cnccc4c3)cn2)CC1 [Example 1208, 8-chloro-N-((6-(((1-methylpiperidin-4-yl)methyl)amino)pyridin-3-yl)methyl)isoquinolin-6-amine]
25 | 10 to 40 µM | 10 to 40 µM | CN1CCC(CNc2ccc(CNc3cc(CO)c4cnccc4c3)cn2)CC1 [Example 1211, (6-(((6-(((1-methylpiperidin-4-yl)methyl)amino)pyridin-3-yl)methyl)amino)isoquinolin-8-yl)methanol]
